In publication PMC7182277, “Characterizing Emerging Canine H3 Influenza Viruses” (PLoS Pathogens, 2020):
Counter-ions that a name gives are not always drawn.

How the values were obtained:
[1] = tested on: Beth15; assay: microbe, parasite or virus in culture; format: cell-based, human H3N2 influenza A virus (A/Bethesda/55/2015)
[2] = tested on: rCIV-1177; assay: microbe, parasite or virus in culture; format: cell-based; conditions: Influenza A virus, MDCK, in Canis lupus familiaris, read-out: Phenotypic assay (Mean IC50 ± SD)
[3] = tested on: CIV-41915; assay: microbe, parasite or virus in culture; format: cell-based, canine H3N2 influenza A virus (A/canine/Illinois/41915/2015); conditions: Influenza A virus, MDCK, in Canis lupus familiaris, read-out: Phenotypic assay (Mean IC50 ± SD)
[4] = target: NA of rCIV-1177 (Influenza A virus, UniProt A0A2D0WZJ5); format: biochemical; conditions: read-out: NA enzyme inhibition assay (Mean IC50 ± SD)
[5] = target: NA of CIV-41915 (Influenza A virus, UniProt A0A0H3YBU9); format: biochemical, canine H3N2 influenza A virus (A/canine/Illinois/41915/2015); conditions: read-out: NA enzyme inhibition assay (Mean IC50 ± SD)
[6] = target: NA of Beth15 (Influenza A virus, UniProt A0A193ACB1); format: biochemical, human H3N2 influenza A virus (A/Bethesda/55/2015); conditions: read-out: NA enzyme inhibition assay (Mean IC50 ± SD)

Row | Compound | Phenotypic assay (Mean IC50 ± SD) [1] | IC50 ([1]; Influenza A virus, MDCK, read-out: Phenotypic assay (Mean IC50 ± SD)) [nM] | IC50 [2] [nM] | IC50 [3] [nM] | IC50 [4] [nM] | IC50 [5] [nM] | IC50 [6] [nM]
1 | NC12CC3CC(CC(C3)C1)C2 [Amantadine, amantadine hydrochloride] | resistant | > 100000 | 300 ± 100 | 600 ± 100 |  |  | 
2 | CCC(CC)O[C@@H]1C=C(C(=O)O)C[C@H](N)[C@H]1NC(C)=O [Oseltamivir carboxylate, oseltamivir carboxylate] |  |  |  |  | 0.2 ± 0.01 | 0.13 ± 0.01 | 
3 | CCC(CC)[C@H](NC(C)=O)[C@@H]1[C@H](O)[C@@H](C(=O)O)C[C@H]1N=C(N)N [Peramivir, peramivir] |  |  |  |  | 0.19 ± 0.02 | 0.15 ± 0.02 | 0.12 ± 0.02
